Results as given in US10975056B2 (GlaxoSmithKline Intellectual Property Development Limited, priority 2016, dated 2021).
Like-named read-outs stand apart in the source and are kept apart here.

Legend:
[1] = biological target: DNMT1 (Homo sapiens, UniProt P26358); assay: DNMT1 biochemical activity, breaklight assay and/or SPA assay
[2] = test system: erythroid progenitor cells (EPCs); assay: Fetal hemoglobin (HbF) ELISA in day 7 erythroid progenitor cells; type: cell-based, human; details: Homo sapiens, Erythroid progenitor cell, HbF ELISA, day 7 EPCs, 5 days; read-out: EPC ELISA (pEC50 category) (converted);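 also: for fetal hemoglobin induction normalized to vehicle-treated cells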
Method in brief: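 HbF induction was read by anti-HbF sandwich ELISA (HRP/TMB, OD450) on lysates and normalized to vehicle-treated cells. Cells were day 7 erythroid progenitors derived from human bone marrow CD34+ cells, seeded at 1,000/well with 3 U/mL rhEPO. Compound was given for 5 days at 37 °C at final concentrations […].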

[3] = binned activity in either the breaklight or the SPA assay
[4] = binned activity in either the breaklight or the SPA assay, read-out: DNMT1 BioChemical (pIC50 category) (converted)

DNMT1, sequence (P26358 whole entry, looked up): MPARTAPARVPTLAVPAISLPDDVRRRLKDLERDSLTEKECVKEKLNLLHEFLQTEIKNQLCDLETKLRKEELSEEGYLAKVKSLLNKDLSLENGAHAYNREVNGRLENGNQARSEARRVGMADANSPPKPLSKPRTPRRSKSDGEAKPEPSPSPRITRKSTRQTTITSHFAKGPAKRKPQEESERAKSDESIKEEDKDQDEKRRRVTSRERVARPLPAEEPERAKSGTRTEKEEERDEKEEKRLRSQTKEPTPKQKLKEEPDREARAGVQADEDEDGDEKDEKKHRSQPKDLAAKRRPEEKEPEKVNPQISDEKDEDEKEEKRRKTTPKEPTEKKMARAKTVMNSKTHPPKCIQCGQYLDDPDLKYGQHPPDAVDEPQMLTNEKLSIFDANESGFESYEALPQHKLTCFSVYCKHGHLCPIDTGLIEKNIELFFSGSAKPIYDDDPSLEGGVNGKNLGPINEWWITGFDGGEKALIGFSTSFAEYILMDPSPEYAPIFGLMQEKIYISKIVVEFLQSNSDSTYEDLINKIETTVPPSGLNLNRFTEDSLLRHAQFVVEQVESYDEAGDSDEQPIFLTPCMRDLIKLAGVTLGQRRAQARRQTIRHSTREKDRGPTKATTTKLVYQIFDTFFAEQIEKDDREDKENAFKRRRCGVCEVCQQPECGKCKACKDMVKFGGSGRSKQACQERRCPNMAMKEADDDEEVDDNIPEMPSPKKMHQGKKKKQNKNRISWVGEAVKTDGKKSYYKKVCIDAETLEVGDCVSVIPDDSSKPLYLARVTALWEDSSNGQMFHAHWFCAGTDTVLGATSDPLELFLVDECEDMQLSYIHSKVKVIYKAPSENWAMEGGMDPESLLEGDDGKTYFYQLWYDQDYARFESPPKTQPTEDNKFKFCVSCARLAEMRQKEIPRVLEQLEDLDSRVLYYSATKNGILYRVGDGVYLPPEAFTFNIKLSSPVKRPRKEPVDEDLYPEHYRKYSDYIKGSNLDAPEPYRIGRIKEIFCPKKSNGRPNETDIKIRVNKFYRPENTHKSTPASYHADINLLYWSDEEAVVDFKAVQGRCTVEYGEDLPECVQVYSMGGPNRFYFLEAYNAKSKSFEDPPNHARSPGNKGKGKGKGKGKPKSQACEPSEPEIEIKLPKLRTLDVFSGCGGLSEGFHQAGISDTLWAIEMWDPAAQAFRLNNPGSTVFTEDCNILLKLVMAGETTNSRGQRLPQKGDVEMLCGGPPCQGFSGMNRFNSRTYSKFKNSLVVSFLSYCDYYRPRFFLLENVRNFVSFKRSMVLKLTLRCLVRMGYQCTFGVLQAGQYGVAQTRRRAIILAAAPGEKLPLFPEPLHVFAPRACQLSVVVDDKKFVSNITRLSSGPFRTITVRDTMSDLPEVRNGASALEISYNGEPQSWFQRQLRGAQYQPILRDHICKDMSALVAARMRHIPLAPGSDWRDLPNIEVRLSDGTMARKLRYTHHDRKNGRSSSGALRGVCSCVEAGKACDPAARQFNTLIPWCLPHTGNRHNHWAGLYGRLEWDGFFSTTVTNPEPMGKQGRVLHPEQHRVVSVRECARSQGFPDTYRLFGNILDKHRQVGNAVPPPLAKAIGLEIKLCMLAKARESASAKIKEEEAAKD

Compound | DNMT1 BioChemical (pIC50 category) [1, 3] | EC50 [2] [nM] | IC50 [1, 4] [nM] | average pIC50 against DNMT1 ([1]; breaklight assay and/or SPA assay, repeated experimental runs) | IC50 ([1]; breaklight assay and/or SPA assay, repeated experimental runs, read-out: average pIC50 against DNMT1 (converted)) [nM]
CCc1c(C#N)c(SC(C(N)=O)c2ccccc2)nc(N2CCO[C@@H](CNC(=O)CN)C2)c1C#N (stereo partly drawn) [Example 598, 2-amino-N-(((2S)-4-(6-((2-amino-2-oxo-1-phenylethyl)thio)-3,5-dicyano-4-ethylpyridin-2-yl)morpholin-2-yl)methyl)acetamide] | D (Category D: ≥6.5) | 1000 to 31600 | – | – | –
CCc1c(C#N)c(SCc2ccc(N(C)S(C)(=O)=O)cc2)nc(N2CCC(N)CC2)c1C#N [Example 587, N-(4-(((6-(4-aminopiperidin-1-yl)-3,5-dicyano-4-ethylpyridin-2-yl)thio)methyl)phenyl)-N-methylmethanesulfonamide] | D (Category D: ≥6.5) | < 316 | – | – | –
CCc1c(C#N)c(SCc2ccc(CNC(=O)CCN)cc2)nc(N2CCCN(C)CC2)c1C#N [Example 96, 3-Amino-N-(4-(((3,5-dicyano-4-ethyl-6-(4-methyl-1,4-diazepan-1-yl)pyridin-2-yl)thio)methyl)benzyl)propanamide] | D (Category D: ≥6.5) | > 31600 | – | – | –
CCc1c(C#N)c(SCc2ccc(N(C)S(C)(=O)=O)cc2)nc(N2CCOC(CN3CCCC3)C2)c1C#N (stereo not shown) [Example 574, N-(4-(((3,5-dicyano-4-ethyl-6-(2-(pyrrolidin-1-ylmethyl)morpholino)pyridin-2-yl)thio)methyl)phenyl)-N-methylmethanesulfonamide] | D (Category D: ≥6.5) | < 316 | – | – | –
CCc1c(C#N)c(SC(C(N)=O)c2ccccc2)nc(N(C)CC(=O)N(C)CCCO)c1C#N (stereo not shown) [Example 665, 2-((6-((2-amino-2-oxo-1-phenylethyl)thio)-3,5-dicyano-4-ethylpyridin-2-yl)(methyl)amino)-N-(3-hydroxypropyl)-N-methylacetamide] | D (Category D: ≥6.5) | < 316 | – | – | –
CCc1c(C#N)c(SC(C(N)=O)c2ccc(OC)cn2)nc(N2CCCN(C)CC2)c1C#N (stereo not shown) [Example 221, 2-((3,5-Dicyano-4-ethyl-6-(4-methyl-1,4-diazepan-1-yl)pyridin-2-yl)thio)-2-(5-methoxypyridin-2-yl)acetamide] | – | < 316 | 316 to 1000 | – | –
CCc1c(C#N)c(SCc2ccc(C(=O)O)cc2)nc(N2CCCN(C)CC2)c1C#N [Example 73, 4-(((3,5-Dicyano-4-ethyl-6-(4-methyl-1,4-diazepan-1-yl)pyridin-2-yl)thio)methyl)benzoic acid] | – | > 31600 | 316 to 1000 | – | –
CCc1c(C#N)c(SC(C(N)=O)c2ccccc2)nc(N2CCO[C@H](CNC(=O)C(C)(C)N)C2)c1C#N (stereo partly drawn) [Example 581, 2-amino-N-(((2R)-4-(6-((2-amino-2-oxo-1-phenylethyl)thio)-3,5-dicyano-4-ethylpyridin-2-yl)morpholin-2-yl)methyl)-2-methylpropanamide] | D (Category D: ≥6.5) | < 316 | – | – | –
CCc1c(C#N)c(SC(C(N)=O)c2ccc(C)cn2)nc(N(C)C)c1C#N (stereo not shown) [Example 238, 2-((3,5-Dicyano-6-(dimethylamino)-4-ethylpyridin-2-yl)thio)-2-(5-methylpyridin-2-yl)acetamide] | D (Category D: ≥6.5) | 1000 to 31600 | – | – | –
CCc1c(C#N)c(SC(C(N)=O)c2ccccc2)nc(N(C)CC(=O)N2CCO[C@@H](CO)C2)c1C#N (stereo partly drawn) [Example 662, 2-((3,5-dicyano-4-ethyl-6-((2-((R)-2-(hydroxymethyl)morpholino)-2-oxoethyl)(methyl)amino)pyridin-2-yl)thio)-2-phenylacetamide] | D (Category D: ≥6.5) | < 316 | – | – | –
CCc1c(C#N)c(SCc2ccc(CNC(=O)CO)cc2)nc(N(C)CC(N)=O)c1C#N [Example 371] | – | 1000 to 31600 | 316 to 1000 | – | –
CCc1c(C#N)c(SC(C(N)=O)c2ccc(F)cc2)nc(N2CCC(N3CCCC3)CC2)c1C#N (stereo not shown) [Example 505, 2-((3,5-dicyano-4-ethyl-6-(4-(pyrrolidin-1-yl)piperidin-1-yl)pyridin-2-yl)thio)-2-(4-fluorophenyl)acetamide] | D (Category D: ≥6.5) | < 316 | – | – | –
CCc1c(C#N)c(SC(C(N)=O)c2ccccc2)nc(N2CCC(OCCOP(=O)(O)O)CC2)c1C#N (stereo not shown) [Example 154, 2-((1-(6-((2-Amino-2-oxo-1-phenylethyl)thio)-3,5-dicyano-4-ethylpyridin-2-yl)piperidin-4-epoxy)ethyldihydrogen phosphate] | – | 1000 to 31600 | 1000 to 31600 | – | –
CCc1c(C#N)c(SC(C(N)=O)c2ccccc2)nc(N(C)CCNC(=O)C(C)(C)N)c1C#N (stereo not shown) [Example 627, 2-amino-N-(2-((6-((2-amino-2-oxo-1-phenylethyl)thio)-3,5-dicyano-4-ethylpyridin-2-yl)(methyl)amino)ethyl)-2-methylpropanamide] | – | < 316 | < 316 | – | –
CCc1c(C#N)c(SC(C(N)=O)c2ccccc2)nc(N2CCOC(CN(C)C)C2)c1C#N (stereo not shown) [Example 558, 2-((3,5-dicyano-6-(2-((dimethylamino)methyl)morpholino)-4-ethylpyridin-2-yl)thio)-2-phenylacetamide] | D (Category D: ≥6.5) | < 316 | – | – | –
CCc1c(C#N)c(S[C@@H](C(N)=O)c2ccc(F)cc2)nc(N2CC[C@H](O)C2)c1C#N [Example 425] | D (Category D: ≥6.5) | 316 to 1000 | – | > 6.5 | 158
CCc1c(C#N)c(SC(C(N)=O)c2ccccc2)nc(N(C)CC(=O)N2C[C@@H](CO)[C@@H](O)C2)c1C#N (stereo partly drawn) [Example 637, 2-((3,5-dicyano-4-ethyl-6-((2-((3R,4S)-3-hydroxy-4-(hydroxymethyl)pyrrolidin-1-yl)-2-oxoethyl)(methyl)amino)pyridin-2-yl)thio)-2-phenylacetamide] | D (Category D: ≥6.5) | 1000 to 31600 | – | – | –
CCc1c(C#N)c(SC(C(N)=O)c2ccccc2)nc(N2CCC(N(C)CCO)CC2)c1C#N (stereo not shown) [Example 443, 2-((3,5-dicyano-4-ethyl-6-(4-((2-hydroxyethyl)(methyl)amino)piperidin-1-yl)pyridin-2-yl)thio)-2-phenylacetamide] | D (Category D: ≥6.5) | < 316 | – | – | –
CCc1c(C#N)c(SC(C(N)=O)c2ccccc2)nc(N2CCC3(CC2)CNC(=O)O3)c1C#N (stereo not shown) [Example 256, 2-((3,5-Dicyano-4-ethyl6-(2-oxo-1-oxa-3,8-diazaspiro[4.5]decan-8-yl)pyridin-2-yl)thio)-2-phenylacetamide] | – | 1000 to 31600 | 316 to 1000 | – | –
CCc1c(C#N)c(SC(C(N)=O)c2ccccc2)nc(N2CCC3(CC2)COC(=O)N3)c1C#N (stereo not shown) [Example 241, 2-((3,5-Dicyano-4-ethyl-6-(2-oxo-3-oxa-1,8-diazaspiro[4.5]decan-8-yl)pyridin-2-yl)thio)-2-phenylacetamide] | – | 1000 to 31600 | 316 to 1000 | – | –
CCOc1c(C#N)c(SC(C(N)=O)c2ccccc2)nc(N(C)C)c1C#N (stereo not shown) [Example 192, 2-((3,5-Dicyano-6-(dimethylamino)-4-ethoxypyridin-2-yl)thio)-2-phenylacetamide] | D (Category D: ≥6.5) | 1000 to 31600 | – | – | –
CCc1c(C#N)c(SCc2ccc(N(C)S(C)(=O)=O)cc2)nc(N2CC[C@H](CNC(=O)CN)C2)c1C#N [Example 650, (R)-2-amino-N-((1-(3,5-dicyano-4-ethyl-6-((4-(N-methylmethylsulfonamido)benzyl)thio)pyridin-2-yl)pyrrolidin-3-yl)methyl)acetamide] | D (Category D: ≥6.5) | 1000 to 31600 | – | – | –
CCc1c(C#N)c(SC(C(N)=O)c2ccccc2)nc(N(C)CC(=O)N(C)CCO)c1C#N (stereo not shown) [Example 606, 2-((6-((2-amino-2-oxo-1-phenylethyl)thio)-3,5-dicyano-4-ethylpyridin-2-yl)(methyl)amino)-N-(2-hydroxyethyl)-N-methylacetamide] | D (Category D: ≥6.5) | < 316 | – | – | –
CCc1c(C#N)c(SC(C(N)=O)c2ccccc2)nc(N2CCC[C@H](NC3COC3)C2)c1C#N (stereo partly drawn) [Example 640, 2-((3,5-dicyano-4-ethyl-6-((S)-3-(oxetan-3-ylamino)piperidin-1-yl)pyridin-2-yl)thio)-2-phenylacetamide] | D (Category D: ≥6.5) | < 316 | – | – | –
CCc1c(C#N)c(SC(C(N)=O)c2ccccc2)nc(N2CCc3ccncc3C2)c1C#N (stereo not shown) [Example 178, 2-((3,5-Dicyano-6-(3,4-dihydro-2,7-naphthyridin-2 (1H)-yl)-4-ethylpyridin-2-yl)thio)-2-phenylacetamide] | D (Category D: ≥6.5) | 1000 to 31600 | – | – | –
CCc1c(C#N)c(SC(C(N)=O)c2cc(OC)ccn2)nc(N2CCCN(C)CC2)c1C#N (stereo not shown) [Example 214, 2-((3,5-Dicyano-4-ethyl-6-(4-methyl-1,4-diazepan-1-yl)pyridin-2-yl)thio)-2-(4-methoxypyridin-2-yl)acetamide] | – | > 31600 | 1000 to 31600 | – | –
N#Cc1c(SC(C(N)=O)c2ccccc2)nc(N2CCC(NCC(N)=O)CC2)c(C#N)c1C1CC1 (stereo not shown) [Example 667, 2-((6-(4-((2-amino-2-oxoethyl)amino)piperidin-1-yl)-3,5-dicyano-4-cyclopropylpyridin-2-yl)thio)-2-phenylacetamide] | – | 1000 to 31600 | < 316 | – | –
CCc1c(C#N)c(SCc2ccc(CS(C)(=O)=O)cc2)nc(N2CCC(N)CC2)c1C#N [Example 499, 2-(4-aminopiperidin-1-yl)-4-ethyl-6-((4-((methylsulfonyl)methyl)benzyl)thio)pyridine-3,5-dicarbonitrile] | D (Category D: ≥6.5) | < 316 | – | – | –
